Results reported in US6596764B1, “Method of preparing diacetyl rhein” (Laboratoire Medidom S.A., priority 1991, dated 2003).
Blank lines part the entries; values can stand above or below the compound they belong to.

Legend:
[1] = tested on: arthrosis in rabbits induced by the intraarticular administration of vitamin A; experiment: Vitamin A arthrosis in rabbits (chronic inflammation model, oral administration); format: in vivo, rabbit (white New Zealanders); details: for clinical signs of arthrosis (disturbances of movement, dragging of the rear legs): 7 rabbits
Method: The effectiveness of diacetylrhein was determined in chronic inflammation models after oral administration.
The following experimental models were used: cotton pellet granuloma in rats and arthrosis in rabbits induced by the intraarticular administration of vitamin A.
An arthrosis-like joint change was initiated in two groups each of 10 rabbits (white New Zealanders) by means of three intraarticular injections of 30,000 IU of vitamin A over the course of 9 days. 56 days later, 10 animals were treated with 3 mg of diacetylrhein/kg/day for 8 weeks.
Furthermore, the curative action of diacetylrhein was compared with that of acetylsalicylic acid on each of 7 rabbits which, after 6 days pre-treatment with three times 10,000 IU vitamin A and a 26 day treatment-free interval for 8 weeks, received either 5 mg of diacetylrhein/kg/day (experimental group), 15 mg of acetylsalicylic acid/kg/day (positive control group) or remained untreated (negative control group). […] In the negative control group, during the following 8 weeks, the clinical signs of a manifest arthrosis increased.

in vivo = details: rat, mouse, cat
[2] = tested on: mucosal lesions in patients with osteoarthrosis; experiment: Clinical randomised double blind double dummy compatibility study (oesophagogastroduodenoscopic findings); format: in vivo, human; details: after 4 weeks
Method: 4. The action of diacetylrhein was investigated in 23 patients (12/11) with osteoarthrosis in a randomised double blind study using the “double dummy technique” (compatibility study). The dosage administered was 50 mg of diacetylrhein twice daily and 250 mg of naproxen three times daily. The period of treatment was 4 weeks. The test parameters were then oesophagogastroduodenoscopic findings before and after the therapy. Only patients with normal mucosal findings or with slight mucosal lesions (grade 1) were used in the study.

[3] = tested on: osteoarthrosis of the spine and of the knee; experiment: Clinical open running study with control (physiotherapy); format: in vivo, human
Method: 2. In an open running study with control, there was investigated the action of diacetylrhein against osteoarthrosis of the spine and of the knee in 70 patients (35/35). The dosage administered was 100 mg of diacetylrhein per day. The period of treatment was 60 days and the period of observation was 75 days. The test parameters were pain and movement limitation. The parameters were evaluated according to a score system. The control group comprised 35 patients in the case of which exclusively physiotherapeutic measures were carried out. Physiotherapy was also carried out in the diacetylrhein treatment group.

gastric mucosa = experiment: Gastric mucosa changes in the rat; format: in vivo
cotton pellet granuloma = experiment: Cotton pellet granuloma in rats (chronic inflammation model, oral administration); format: in vivo, rat
Method: The effectiveness of diacetylrhein was determined in chronic inflammation models after oral administration. The following experimental models were used: cotton pellet granuloma in rats and arthrosis in rabbits induced by the intraarticular administration of vitamin A. a) Cotton pellet granuloma in rats. Young sexually mature rats (n=10) were given 25, 50 or 100 mg diacetylrhein/kg or 5 mg indomethacin/kg or 100 mg acetylsalicylic acid/kg daily for 5 days. A control group only treated with water was also used. Implantation of the pellets took place on the first day of treatment.

[4] = tested on: coxarthrosis and gonarthrosis; experiment: Clinical double-blind study against naproxen with subsequent placebo after-treatment; format: in vivo, human; details: for improvement of all test parameters (pain and movement symptoms score, function limitation, compatibility) vs initial values: patients, 60 days
Method: 1. The action of diacetylrhein was investigated in coxarthrosis and gonarthrosis in 95 (49/46) patients in a double-blind study against naproxen and subsequent placebo after-treatment. The dosage administered was 50 mg of diacetylrhein twice daily or 750 mg of naproxen daily. The period of treatment was 60 days after a 7 day wash-out phase. The subsequent placebo treatment extended over 60 days. Test parameters were the pain and movement symptoms according to a score scale, function limitation and compatibility.

localised arthrosis = experiment: Clinical single blind crossover study against naproxen; format: in vivo, human; details: 20 patients
Method: 3. The action of diacetylrhein in the case of localised arthrosis in 20 patients was investigated in a single blind crossover study against naproxen. The patients were divided up into two groups: in the first group, initially 50 mg of diacetylrhein was administered twice daily for 20 days. Subsequently, there followed a three day wash-out phase and a further treatment with 250 mg of naproxen twice daily for a further 20 days. In the second group, the reverse sequence was used. The period of treatment was, in all, 43 days. The test parameters of pain, compression pain, passive movement pain, function limitation and swelling were determined according to a score system.

[5] = 50 mg of diacetylrhein twice daily
[6] = crossover study, 43 days in all
[7] = 250 mg of naproxen three times daily

Structure (SMILES): CC(=O)Oc1ccccc1C(=O)O [acetylsalicylic acid, reference compound]
- clinical signs of arthrosis (disturbances of movement, dragging of the rear legs) ([1]; 15 mg of acetylsalicylic acid/kg/day for 8 weeks (positive control group)): improved significantly

Structure (SMILES): CC(=O)Oc1cccc2c1C(=O)c1c(OC(C)=O)cc(C(=O)O)cc1C2=O [diacetylrhein]
- LD50 (in vivo): 119 to 339 mg/kg
- LD50 (in vivo; po): 1900 to 7900 mg/kg
- clinical signs of arthrosis (disturbances of movement, dragging of the rear legs) ([1]; 5 mg of diacetylrhein/kg/day for 8 weeks after 3 x 10,000 IU vitamin A and 26 day treatment-free interval): improved significantly
- macroscopically and microscopically recognisable joint changes ([1]; rabbits, 3 mg/kg/day for 8 weeks starting 56 days after 3 x 30,000 IU vitamin A, in comparison with control group): significantly reduced
- number of cases with mucosal lesions of grade 2 (endoscopic findings) [2, 5]: one
- share of patients with mucosal lesions of grade 2 (endoscopic findings) [2, 5]: 10%
- pain and movement limitation (score system), treatment group vs control group ([3]; 35/35 patients, 100 mg per day plus physiotherapy for 60 days vs physiotherapy only): statistically significant superiority
- effect after discontinuation of the treatment ([3]; period of observation 75 days, treatment 60 days, 100 mg per day): continuing therapeutic effect (hang-over effect)
- erosions of the gastric mucosa (gastric mucosa; single administration of 400 mg/kg): did not give rise to any erosions
- gastric mucosal damage (gastric mucosa; twice daily 100 mg/kg over the course of 3 days): did not initiate any mucosal damage
- Fresh and dry weights of the granuloma (cotton pellet granuloma; rats (n=10), oral, 25, 50 or 100 mg diacetylrhein/kg daily for 5 days, in comparison with water-treated control group): significant and clearly dosage-dependent reduction
- action on granuloma weights compared with reference drugs (cotton pellet granuloma; rats, oral, 100 mg diacetylrhein/kg daily for 5 days vs 5 mg indomethacin/kg or 100 mg acetylsalicylic acid/kg): corresponded to about the action of 5 mg indomethacin or of 100 mg acetylsalicylic acid
- weights of the thymus and adrenals (cotton pellet granuloma; rats, oral, daily treatment for 5 days): did not change
- night pain and pressure pain after discontinuation, vs naproxen/placebo collective ([4]; 30 days after discontinuation of diacetylrhein, 5% level): difference was also verified
- spontaneous pain and active and passive movement pain after discontinuation, vs naproxen/placebo collective ([4]; days 90 and 120, under subsequent placebo, P<0.01): statistically significant superiority
- improvement of all test parameters (pain and movement symptoms score, function limitation, compatibility) vs initial values ([4]; 50 mg of diacetylrhein twice daily, P<0.01): statistically significant rate of improvement
- clinical laboratory parameters (localised arthrosis; [6]): no changes
- side effects (localised arthrosis; [6]): No noteworthy side effects
- pain, compression pain, passive movement pain, function limitation and swelling (score system), vs naproxen (localised arthrosis; crossover, 50 mg diacetylrhein twice daily 20 days vs 250 mg naproxen twice daily 20 days): superiority

- number of patients with mucosal lesions of grade 2, 3 and 4 (endoscopic findings) [2, 7]: 5 patients
- share of patients with mucosal lesions of grade 2, 3 and 4 (endoscopic findings) [2, 7]: 50%
Structure (SMILES): COc1ccc2cc([C@H](C)C(=O)O)ccc2c1 [naproxen, reference compound]
- improvement of all test parameters (pain and movement symptoms score, function limitation, compatibility) vs initial values ([4]; 750 mg of naproxen daily, P<0.05): statistically significant rate of improvement
